The values that follow come from PubChem BioAssay (NCI).

Common to all, as to test: inhibition of tumour cell growth, NCI panel, 48 h
For assay [1], the system named is SNB-75 CNS.
The subject of assay [2] is RXF 393 renal.
Assay [3] has as its system UO-31 renal.
For assay [4], the system named is OVCAR-3 ovarian.
Assay [5] concerns LXFL 529 NSCLC.
For assay [6], the system named is OVCAR-5 ovarian.
The subject of assay [7] is DMS 114 small cell lung.
In assay [8] the test system is HCC-2998 colon.

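96-well plates; 48 h exposure; 5 concentrations. Endpoints by linear interpolation between flanking doses. Not reached: highest tested concentration assigned. TGI denotes the concentration required for complete inhibition of growth.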 Where only a bound is given, the exact number is not on record here.

For `COc1ccccc1/C=C1\CCC(CNc2ccc(Cl)cc2)C1=O` (centres undefined), the TGI was 29.9 µM in assay [1]; 30.3 µM in assay [2]; 16.1 µM in assay [3]; 22.9 µM in assay [4]; 13.7 µM in assay [5]; 23.6 µM in assay [6]. The TGI in assay [7] is 22.5 µM; in assay [8], 18.8 µM.

Turning to `CS(=O)(=O)N(CCC#N)c1ccc(/C=N/NC(=O)CC(=O)Nc2cccc(Cl)c2)cc1`, the TGI in assay [1], in assay [2], in assay [3], in assay [4], in assay [5] and in assay [6] was above 100 µM in each case. The TGI in assay [7] and in assay [8] was above 100 µM each time.

For the molecule `CS(=O)(=O)OCCN1CCN(C(=O)c2cccc3c(Nc4ccc(S(N)(=O)=O)cc4)c4ccccc4nc23)CC1`, the TGI in assay [1], in assay [2], in assay [3], in assay [4], in assay [5] and in assay [6] was above 100 µM in each case. Further, the figures for the TGI in assay [7] and in assay [8] were above 57.6 µM and above 100 µM, respectively.

For `CCN(CC)c1ccc(N=C2C=CC(=O)c3ncccc32)c(C)c1`, the TGI in assay [1] worked out at 28.9 µM; in assay [2], 12.6 µM; in assay [3] it was 30.4 µM; in assay [4], 11.4 µM; in assay [5], 8.67 µM; in assay [6], 24.4 µM. The TGI in assay [7] came out at 12.9 µM; in assay [8], 24.2 µM.

As to `Cn1cc(NC(=O)c2cc(NC(=O)Nc3cc(C(=O)Nc4cc(C(=O)NCCC(=N)N)n(C)c4)n(C)c3)cn2C)cc1C(=O)NCCC(=N)N`, the TGI in assay [1] was 67.2 µM; in assay [2], 42.9 µM; in assay [3] it was above 100 µM; in assay [4] it was above 100 µM; in assay [5] it was above 100 µM; in assay [6] it was above 100 µM. In addition, the TGI in assay [7] and in assay [8] was above 100 µM in each case.

For `CCNc1c(C(=O)N(CC)CC)c(=O)[nH]c2ncccc12`, the TGI in assay [1], in assay [2], in assay [3], in assay [4], in assay [5] and in assay [6] was above 100 µM each time. The TGI in assay [7] and in assay [8] was above 100 µM each time.

On to `CC(C)COC(=O)N1N=NC2C3OC(CC3=O)C21` (centres undefined), for which the TGI in assay [1], in assay [2], in assay [3], in assay [4], in assay [5] and in assay [6] was above 100 µM each time. The TGI in assay [7] and in assay [8] was above 100 µM in each case.

Turning to `CC(=O)O[C@H]1CC[C@@]2(C)C(CC[C@]3(C)C2CC[C@]2(C)Oc4c(C)cc(O)cc4C[C@@H]23)C1(C)C` (some centres undefined), the TGI in assay [1] came out at 8.12 µM; in assay [2], 7.09 µM; in assay [3], 14.3 µM; in assay [4], 25.7 µM; in assay [5], 13.6 µM; in assay [6], 23.6 µM. For the same molecule, the results for the TGI in assay [7] and in assay [8] were 26.7 µM and 22.2 µM, respectively.
